The test system of test [1] is BJ-TERT/LT/ST/RAS^V12 cells. As to the kind of experiment: Suppression of erastin-induced cell death (suppressor screen and follow-up). The format is cell-based, human. Conditions: co-treatment with erastin.
For test [2], the system named is BJ-TERT/LT/ST/RAS^V12 cells. The test is described as follows: Alamar Blue viability assay. Conditions: for IC50: BJ-TERT/LT/ST/RAS^V12 (BJELR) cells, read-out: IC50 (lethality); for Selective lethality / activity of erastin analog: BJ-TERT/LT/ST/RAS^V12 cells versus BJ-TERT cells. The format is cell-based, human. How it is done: (a) Calu-1 lung carcinoma cells harboring oncogenic KRAS were infected with lentivirus containing shRNAs targeting KRAS or GFP. Sequences of shRNAs are indicated by starting nucleotide (nt) in the KRAS mRNA coding sequence. Cells were treated with erastin and viability measured by Trypan Blue exclusion. (b) Knockdown of KRAS was confirmed by western blot. (c,d) A673 cells harboring oncogenic BRAF were infected with lentiviral shRNAs targeting BRAF exon 5 (c) or the 5′ UTR (d), luciferase (LUC) (c) or GFP (d). Cells were treated with erastin and viability measured using Alamar Blue (c) and Trypan Blue (d). (e) Knockdown of BRAF was confirmed by western blot. […] BJ-TERT/LT/ST/RAS^V12 cells were treated with erastin alone or in with a MEK inhibitor U0126 (20 μM), MEK inhibitor I (10 μM) or MEK 1/2 inhibitor (50 μM). After 48 h, viability was determined using Trypan Blue. (g) Structures of certain erastin and related analogs. (h) and (i) Dose-response curves were measured for erastin A3 and erastin B2 in BJ-TERT/LT/ST/RAS^V12 cells (black squares) or BJ-TERT cells (grey circles). (j) Calu-1 lung carcinoma cells harboring oncogenic KRAS were infected with lentivirus containing shRNAs targeting KRAS or GFP. Sequences of shRNAs are indicated by starting nucleotide (nt) in the KRAS mRNA coding sequence. Cells were treated with erastin and viability (y-axis) measured by Trypan Blue exclusion. Cells were treated with erastin for 24 hours, and percent inhibition of viability (y-axis) measured using Alamar Blue (k) and Trypan Blue (l). (m) Structures of erastin and related analogs. (n) Dose-response curves were measured for erastin A6, erastin B2, erastin A8 and erastin A9 in BJ-TERT/LT/ST/RAS^V12 cells (squares) or BJ-TERT cells (circles) using Alamar Blue.
Alamar Blue metabolism: 10% Alamar Blue was added to assay plates, which were then incubated for an additional 16 hours. Red fluorescence, resulting from reduction of Alamar Blue, was detected on a Victor3 platereader (ex: 530, em: 590).
Table 2. Activity of RAS-selective lethal compound erastin in tumor cell lines. IC50 values (ng/mL) are shown using the Alamar Blue viability assay. BJ engineered tumor cells express TERT, LT, ST, and oncogenic RAS. Isogenic RAS^V12 lacking cells are identical but lack HRAS^V12. BJ-DRD cells are derived from BJ cells and contain TERT, oncogenic RAS, a truncated from of p53 (p53DD) that disrupts the tetramerization of endogenous p53, a CDK4(R24C) mutant resistant to inhibition by p16INK4A and p151NK4B (the major negative regulators of CDK4) and cyclin D1. These latter protein substitute for LT. HCT-116, A549, Calu-1, and MIA PaCa-2 are tumor cells derived from cancers (colon, lung, lung and pancreatic, respectively) known to have activating mutations in RAS.
(Resazurin is reduced to fluorescent resorufin, in cell work by metabolically active cells.)

A further test deals with T1, VDAC2 (Homo sapiens, UniProt P45880).
T1 construct: hexahistidine (pET-15b, thrombin site) (N); made in house; host or cells: E. coli
T1 sequence (P45880 1-294): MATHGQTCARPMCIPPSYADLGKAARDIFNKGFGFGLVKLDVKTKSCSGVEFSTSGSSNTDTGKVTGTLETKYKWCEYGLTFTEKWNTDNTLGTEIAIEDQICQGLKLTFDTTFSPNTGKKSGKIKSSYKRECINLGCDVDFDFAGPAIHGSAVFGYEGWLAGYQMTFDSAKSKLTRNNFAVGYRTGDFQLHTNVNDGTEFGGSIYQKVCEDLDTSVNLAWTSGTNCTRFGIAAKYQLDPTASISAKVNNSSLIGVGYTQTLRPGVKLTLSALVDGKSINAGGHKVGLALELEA
As to the kind of experiment: VDAC2 binding assay (competition with radiolabelled erastin A9). Conditions: competition with tritium-labeled erastin A9. As to the method: Given the interactions between erastin and VDAC using affinity-based target identification and VDAC functional assays, the direct binding of erastin to VDACs was investigated.
VDAC2 protein was isolated from E. coli using a modified version of the protocol originally described by Koppel et al. Bacterial cultures were grown in LB containing 50 mg/L ampicillin to an OD of 0.6, and induced using […] IPTG overnight. Cultures were harvested by centrifugation at 6000×g for 10 min. The pellet was then washed with dH2O and resuspended in buffer (20% sucrose, 20 mM Tris, pH 8.0, […] lysozyme) and incubated at 25° C. for 10 minutes. The lysate was then sonicated for 2×30 seconds and centrifuged at 15000×g for 20 minutes. The pellet was resuspended in resuspension buffer (4.5 M guanidine-HCl, 0.1M NaCl, 20 mM Tris, pH 8.0) and incubated for 1 hour at 25° C. The suspension was then centrifuged (20 minutes, 15000×g), and the supernatant was loaded on a NI-NTA Superflow column (Qiagen) pre-equilibrated with 5 volumes of resuspension buffer. The column was washed with 5 column volumes of resuspension buffer containing 10 mM imidazole. The protein was then eluted using resuspension buffer containing 225 mM imidazole. The eluate was dialysed against 0.1 M NaCl, 20 mM Tris, pH 8.0, and 2% LDAO (Fluka) overnight, and then concentrated via centrifugation to 4 mg/mL.
To assay direct binding of erastin analogs, 40 μg of purified VDAC2 was resuspended in 100 μL of Binding Buffer (25 mM HEPES, pH 8.0, 0.1% BSA, 7 mM MgCl2, 15 mM NaCl), and incubated in the presence of 20 μM radiolabelled erastin A9 and erastin A9 or erastin A8 for 15 minutes. The mixture was then deposited onto Protran BA85 0.45 μM binding filters (Whatman) using vacuum filtration. The filter was rinsed 5 times with 1 mL wash buffer (25 mM HEPES, 0.1% BSA), and then incubated in 5 mL scintillation liquid (Cytoscint, MP Biomedicals). Radioactivity was detected on a LKB Wallac 1211 RACKBETA Liquid Scintillation Counter.

Test [3] deals with taxol resistant CCRF-CEM derivative cells. As to the kind of experiment: Cell death in taxol/vinblastine resistance panel. The test is classed as cell-based. Conditions: Homo sapiens. As to the method:
(§1) In certain embodiments, the sensitivity to erastin, can be tested in cell lines that are resistant to taxol and vinblastine. The sensitivity of CCRF-CEM parental, and taxol and vinblastine resistant derivative cells to erastin was tested. […] Erastin analogues can be tested to ensure their effectiveness in inducing cell death in tumor cell line which are resistant to taxol or vinblastin, or other ant-tumor agents.

Test [4] has as its system vinblastine resistant CCRF-CEM derivative cells. As to the kind of experiment: Cell death in taxol/vinblastine resistance panel. The format is cell-based. Conditions: Homo sapiens. As to the method: as §1
The subject of the next test is CCRF-CEM parental cells. The test is described as follows: Cell death in taxol/vinblastine resistance panel. Conditions: Homo sapiens. The test is classed as cell-based. How it is done:
as §1

Results on 17 compounds are retold here after US20080299076A1, “Compunds and compositions that cause non-apoptotic cell death and uses thereof” (priority 2006, published 2008).

Entries after “also recorded” stand apart in the source; their conditions may differ. Like-named read-outs stand apart in the source and are kept apart here.

Consider `Cn1cnc(N)c2ncnc1-2` [3-methyladenine], for which the “Effect on erastin-induced cell death” value in test [1] was “not suppressed”.

In the case of `COC(=O)CC(NC(=O)OC(C)(C)C)C(=O)CF` (centres unmarked) [Boc-Asp(Ome)-fluoromethyl ketone], the “Effect on erastin-induced cell death” value in test [1] is given as “does not block cell death induced by erastin”.

For the compound `Oc1ncnc2[nH]ncc12` [allopurinol], the “Effect on erastin-induced cell death” value in test [1] is reported as “did not affect erastin-induced cell death”.

With `Cc1c(C)c2c(c(C)c1O)CC[C@@](C)(CCC[C@H](C)CCC[C@H](C)CCCC(C)C)O2` [alpha-tocopherol], the “Effect on erastin-induced cell death” value in test [1] was “prevented erastin-induced death”.

On to `CC1=C(/C=C/C(C)=C/C=C/C(C)=C/C=C/C=C(C)/C=C/C=C(C)/C=C/C2=C(C)CCCC2(C)C)C(C)(C)CCC1` [beta-carotene], for which the “Effect on erastin-induced cell death” value in test [1] was “prevented erastin-induced death”.

`Cc1cc(C(C)(C)C)c(O)c(C(C)(C)C)c1` [butylated hydroxytoluene]: the “Effect on erastin-induced cell death” value in test [1] was “prevented erastin-induced death”.

Turning to `CC(C)(Oc1ccc(C2CC2(Cl)Cl)cc1)C(=O)O` (centres unmarked) [ciprofibrate], the “Effect on erastin-induced cell death” value in test [1] is “did not affect erastin-induced cell death”.

On to `C[C@@H]1C[C@@H]([C@H](O)CC2CC(=O)NC(=O)C2)C(=O)[C@@H](C)C1` [cyclohexamide], for which the “Effect on erastin-induced cell death” value in test [1] is reported as “suppressed”.

What is called IC50 is the point on the concentration scale where inhibition reaches its midpoint. On to `CCOc1ccccc1-n1c(C(C)N2CCN(C(=O)COc3ccc(CN)cc3)CC2)nc2ccccc2c1=O` (centres unmarked) [erastin A3], for which, in test [2], the IC50 was determined as 25000 nM and the “Selective lethality / activity of erastin analog” value is recorded as “retained the ability to selectively kill BJ-TERT/LT/ST/RAS^V12 cells; also recorded: retained the ability to kill BJ-TERT/LT/ST/RAS^V12 cells but not BJ-TERT cells”.

Regarding `CCOc1ccccc1-n1c(C(C)N2CCN(C(=O)COc3ccc(CN)cc3)CC2)nc2ccccc2c1=O` (centres unmarked) [erastin A6, 2-(1-{4-[2-(4-Aminomethyl-phenoxy)-acetyl]-piperazin-1-yl}-ethyl)-3-(2-ethoxy-phenyl)-3H-quinazolin-4-one], the “Selective lethality / activity of erastin analog” value in test [2] (listed as ERA-A6) is “selectively lethal to RAS^V12-expressing cells”.

For orientation: Kd means a measure of binding affinity in units of concentration. As to `CCOc1ccccc1-n1c(C(C)N2CCN(C(=O)COc3ccc(Cl)cc3)CC2)nc2cc(NC(C)=O)ccc2c1=O` (centres unmarked) [erastin A9, N-[2-(1-{4-[2-(4-chloro-phenoxy)-acetyl]-piperazin-1-yl}-ethyl)-3-(2-ethoxy-phenyl)-4-oxo-3,4-dihydro-quinazolin-7-yl]-acetamide], on VDAC2, the “Direct binding to VDAC2” value is recorded as “directly binds VDAC2” and binding was put at a Kd of 112 nM. The IC50 in test [2] (Homo sapiens) came to 1900 nM.

Take `CC(C)NC(=O)N(CCN1CCN(C(=O)COc2ccc(Cl)cc2)CC1)Cc1ccc(F)cc1` [erastin B1]: in test [2], the IC50 amounted to 10000 nM and the “Selective lethality / activity of erastin analog” value was “inactive”.

On to `CC(C)NC(=O)N(CCN1CCN(C(=O)COc2ccc(Cl)cc2)CC1)Cc1ccc(CN)cc1` [erastin B2, 1-(4-Aminomethyl-benzyl)-1-(2-{4-[2-(4-chloro-phenoxy)-acetyl]-piperazin-1-yl}-ethyl)-3-isopropyl-urea], for which, in test [2], the “Selective lethality / activity of erastin analog” value is recorded as “lacking activity in cells; also recorded: lacks activity”. The IC50 in test [2] (Homo sapiens) is greater than 50000 nM.

As for `COc1ccc2[nH]cc(CCNC(C)=O)c2c1` [melatonin], the “Effect on erastin-induced cell death” value in test [1] is recorded as “did not affect erastin-induced cell death”.

With `O=c1[nH]c(=O)c2c[nH]nc2[nH]1` [oxypurinol], the “Effect on erastin-induced cell death” value in test [1] is given as “did not affect erastin-induced cell death”.

Regarding `CC(=O)O[C@H]1C(=O)[C@@]2(C)[C@H]([C@H](OC(=O)c3ccccc3)[C@]3(O)C[C@H](OC(=O)[C@H](O)[C@@H](NC(=O)c4ccccc4)c4ccccc4)C(C)=C1C3(C)C)[C@]1(OC(C)=O)CO[C@@H]1C[C@@H]2O` [taxol], the IC50 was found to be 560 nM in test [3], 1380 nM in test [4] and 1 nM in the test on CCRF-CEM parental cells.

In the case of `CC[C@]1(O)C[C@@H]2CN(CCc3c([nH]c4ccccc34)[C@@](C(=O)OC)(c3cc4c(cc3OC)N(C)[C@H]3[C@@](O)(C(=O)OC)[C@H](OC(C)=O)[C@]5(CC)C=CCN6CC[C@]43[C@@H]65)C2)C1` [vinblastine], the 50% inhibitory concentration (IC50) in test [3] is 93 nM; in test [4], 370 nM; with CCRF-CEM parental cells, 1 nM.
